Measurements published in patent publication US8754209B2, “Indazole derivatives or pharmaceutically acceptable salts thereof as protein kinase inhibitors for proliferative diseases treatment, and a pharmaceutical composition containing the same as an active ingredient” (Korea Institute of Science and Technology, priority 2009, dated 2014).

test system: A375P cells; assay: Anti-proliferative activity on A375P cell line (MTT assay); assay type: cell-based; details: A375P human melanoma cell line
Method: A375P cells were purchased from American Type Culture Collection (ATCC, Rockville, Md., US) and maintained in DMEM medium (Welgene, Daegu, Korea) supplemented with 10% FBS (Welgene) and 1% penicillin/streptomycin (Welgene) in a humidified atmosphere with 5% CO2 at 37° C. The A375P cells were taken from culture substrate with 0.05% trypsin-0.02% EDTA and plated at a density of 5×10^3 cells/well in 96 well plates and then incubated at 37° C. for 24 h in a humidified atmosphere with 5% CO2 prior to treatment of various concentration (three fold serial dilution, 12 points) of test compounds. The A357P cell viability was assessed by the conventional 3-(4,5-dimethylthiazol-2-yl)-2,5-diphenyltetrazolium bromide (MTT) reduction assay. MTT assays were carried out with CellTiter 96 (Promega) according to the manufacturer's instructions.
After 1 day, 0.5 μl the representative compounds of the examples were added thereto. The representative compounds of the examples were prepared by three fold serial dilution of 10 mM stock solution in DMSO, 12 point (final conc. DMSO 0.5%). Then, 15 μl dye was added in each well. After 2 h, 100 μl stop solution was added each well. After 24 h, absorbance was measured. The absorbance at 590 nm was recorded using EnVision2103 (PerkinElmer; Boston, Mass., US). The IC50 value was calculated using GraphPad Prism 4.0 software.

GI50, < 10 µM:
O=C(Nc1ccc(-c2ccc3c(C(=O)NCCN4CCOCC4)n[nH]c3c2)cc1)c1cc2ccccc2s1 [Example 32, 6-(4-(benzo[b]thiophene-2-carboxamido)phenyl)-N-(2-morpholinoethyl)-1H-indazole-3-carboxamide]
CCOC(=O)c1n[nH]c2cc(-c3cccc(NC(=O)Nc4ccc(CN5CCN(CC)CC5)c(C(F)(F)F)c4)c3)ccc12 [Example 69, ethyl 6-(3-(3-(4-((4-ethylpiperazin-1-yl)methyl)-3-(trifluoromethyl)phenyl)ureido)phenyl)-1H-indazole-3-carboxylate]
CCOC(=O)c1n[nH]c2cc(-c3ccc(NC(=O)Nc4ccc(Cl)c(Cl)c4)cc3)ccc12 [Example 20, ethyl 6-(4-(3-(3,4-dichlorophenyl)ureido)phenyl)-1H-indazole-3-carboxylate]
CCOC(=O)c1n[nH]c2cc(-c3ccc(NC(=O)Cc4ccc(OC)c(OC)c4)cc3)ccc12 [Example 11, ethyl 6-(4-(2-(3,4-dimethoxyphenyl)acetamido)phenyl)-1H-indazole-3-carboxylate]
O=C(Nc1ccc(-c2ccc3[nH]nc(C(=O)NCCN4CCOCC4)c3c2)cc1)Nc1ccc(Cl)c(C(F)(F)F)c1 [Example 72, 5-(4-(3-(4-chloro-3-(trifluoromethyl)phenyl)ureido)phenyl)-N-(2-morpholinoethyl)-1H-indazole-3-carboxamide]
COC(=O)c1n[nH]c2cc(-c3cccc(NC(=O)Nc4ccc(N5CCN(C)CC5)c(C(F)(F)F)c4)c3)ccc12 [Example 70, methyl 6-(3-(3-(4-(4-methylpiperazin-1-yl)-3-(trifluoromethyl)phenyl)ureido)phenyl)-1H-indazole-3-carboxylate]
CCNC(=O)c1n[nH]c2cc(-c3cccc(NC(=O)Nc4ccc(C)cc4C)c3)ccc12 [Example 63, 6-(3-(3-(2,4-dimethylphenyl)ureido)phenyl)-N-ethyl-1H-indazole-3-carboxamide]
CCOC(=O)c1n[nH]c2cc(-c3ccc(NC(=O)c4ccc(OC5CCN(C)CC5)c(C(F)(F)F)c4)cc3)ccc12 [Example 19, ethyl 6-(4-(4-(1-methylpiperidin-4-yloxy)-3-(trifluoromethyl)benzamido)phenyl)-1H-indazole-3-carboxylate]
CCNC(=O)c1n[nH]c2cc(-c3cccc(NC(=O)Nc4cccc(Cl)c4Cl)c3)ccc12 [Example 61, 6-(3-(3-(2,3-dichlorophenyl)ureido)phenyl)-N-ethyl-1H-indazole-3-carboxamide]
O=C(Nc1cccc(-c2ccc3c(C(=O)NCCN4CCOCC4)n[nH]c3c2)c1)c1cc(N2CCC(O)CC2)cc(C(F)(F)F)c1 [Example 77, 6-(3-(3-(4-hydroxypiperidin-1-yl)-5-(trifluoromethyl)benzamido)phenyl)-N-(2-morpholinoethyl)-1H-indazole-3-carboxamide]
Cc1ccc(NC(=O)Nc2ccc(Cl)c(C(F)(F)F)c2)cc1-c1ccc2c(C(=O)NC3CC3)n[nH]c2c1 [Example 66, 6-(5-(3-(4-chloro-3-(trifluoromethyl)phenyl)ureido)-2-methylphenyl)-N-cyclopropyl-1H-indazole-3-carboxamide]
CCOC(=O)c1n[nH]c2cc(-c3cccc(NC(=O)c4cc(N5CCC(O)CC5)cc(C(F)(F)F)c4)c3)ccc12 [Example 76, ethyl 6-(3-(3-(4-hydroxypiperidin-1-yl)-5-(trifluoromethyl)benzamido)phenyl)-1H-indazole-3-carboxylate]
CCOC(=O)c1n[nH]c2cc(-c3ccc(NC(=O)c4ccc(OC)c5ccc(OC)cc45)cc3)ccc12 [Example 15, ethyl 6-(4-(4,7-dimethoxy-1-naphthamido)phenyl)-1H-indazole-3-carboxylate]
CNC(=O)c1n[nH]c2cc(-c3ccc(NC(=O)c4ccc(-c5ccc(OC)cc5)o4)cc3)ccc12 [Example 25, 6-(4-(5-(4-methoxyphenyl)furan-2-carboxamido)phenyl)-N-methyl-1H-indazole-3-carboxamide]
CNC(=O)c1n[nH]c2cc(-c3ccc(NC(=O)c4cc5ccccc5s4)cc3)ccc12 [Example 27, 6-(4-(benzo[b]thiophene-2-carboxamido)phenyl)-N-methyl-1H-indazole-3-carboxamide]
CCOC(=O)c1n[nH]c2cc(-c3ccc(NC(=O)c4ccc(-c5cc(C(F)(F)F)ccc5Cl)o4)cc3)ccc12 [Example 16, ethyl 6-(4-(5-(2-chloro-5-(trifluoromethyl)phenyl)furan-2-carboxamido)phenyl)-1H-indazole-3-carboxylate]
O=C(Nc1cccc(-c2ccc3c(C(=O)NCCN4CCOCC4)n[nH]c3c2)c1)Nc1cccc(Cl)c1Cl [Example 60, 6-(3-(3-(2,3-dichlorophenyl)ureido)phenyl)-N-(2-morpholinoethyl)-1H-indazole-3-carboxamide]
COC(=O)c1n[nH]c2cc(-c3cccc(NC(=O)Nc4ccc(C)cc4C)c3)ccc12 [Example 56, methyl 6-(3-(3-(2,4-dimethylphenyl)ureido)phenyl)-1H-indazole-3-carboxylate]
CCOC(=O)c1n[nH]c2cc(-c3ccc(NC(=O)c4cccc(C(F)(F)F)c4)cc3)ccc12 [Example 2, ethyl 6-(4-(3-(trifluoromethyl)benzamido)phenyl)-1H-indazole-3-carboxylate]
CCOC(=O)c1n[nH]c2cc(-c3ccc(NC(=O)c4ccnnc4)cc3)ccc12 [Example 10, ethyl 6-(4-(pyridazine-4-carboxamido)phenyl)-1H-indazole-3-carboxylate]
CCOC(=O)c1n[nH]c2cc(-c3ccc(NC(=O)Nc4cc(C(F)(F)F)cc(C(F)(F)F)c4)cc3)ccc12 [Example 22, ethyl 6-(4-(3-(3,5-bis(trifluoromethyl)phenyl)ureido)phenyl)-1H-indazole-3-carboxylate]
O=C(Nc1cccc(-c2ccc3c(C(=O)NCCN4CCOCC4)n[nH]c3c2)c1)c1cc(N2CCOCC2)cc(C(F)(F)F)c1 [Example 59, 6-(3-(3-morpholino-5-(trifluoromethyl)benzamido)phenyl)-N-(2-morpholinoethyl)-1H-indazole-3-carboxamide]
CCOC(=O)c1n[nH]c2cc(-c3cc(NC(=O)Nc4ccc(N5CCN(C)CC5)c(C(F)(F)F)c4)ccc3C)ccc12 [Example 71, ethyl 6-(2-methyl-5-(3-(4-(4-methylpiperazin-1-yl)-3-(trifluoromethyl)phenyl)ureido)phenyl)-1H-indazole-3-carboxylate]
CNC(=O)c1n[nH]c2cc(-c3cc(NC(=O)Nc4cc(-n5cnc(C)c5)cc(C(F)(F)F)c4)ccc3C)ccc12 [Example 75, N-methyl-6-(2-methyl-5-(3-(3-(4-methyl-1H-imidazol-1-yl)-5-(trifluoromethyl)phenyl)ureido)phenyl)-1H-indazole-3-carboxamide]
CNC(=O)c1n[nH]c2cc(-c3ccc(NC(=O)c4ccc(OC5CCN(C)CC5)c(C(F)(F)F)c4)cc3)ccc12 [Example 40, N-methyl-6-(4-(4-(1-methylpiperidin-4-yloxy)-3-(trifluoromethyl)benzamido)phenyl)-1H-indazole-3-carboxamide]
CCOC(=O)c1n[nH]c2cc(-c3ccc(NC(=O)Nc4cccc(C(F)(F)F)c4)cc3)ccc12 [Example 23, ethyl 6-(4-(3-(3-(trifluoromethyl)phenyl)ureido)phenyl)-1H-indazole-3-carboxylate]
COC(=O)c1n[nH]c2ccc(-c3ccc(NC(=O)Nc4ccc(Cl)c(C(F)(F)F)c4)cc3)cc12 [Example 43, methyl 5-(4-(3-(4-chloro-3-(trifluoromethyl)phenyl)ureido)phenyl)-1H-indazole-3-carboxylate]
Cc1ccc(NC(=O)c2cccc(C(F)(F)F)c2)cc1-c1ccc2c(C(=O)NCCN3CCOCC3)n[nH]c2c1 [Example 67, 6-(2-methyl-5-(3-(trifluoromethyl)benzamido)phenyl)-N-(2-morpholinoethyl)-1H-indazole-3-carboxamide]
CCOC(=O)c1n[nH]c2cc(-c3cccc(NC(=O)c4cc(C)on4)c3)ccc12 [Example 46, ethyl 6-(3-(5-methylisoxazole-3-carboxamido)phenyl)-1H-indazole-3-carboxylate]
CNC(=O)c1n[nH]c2cc(-c3cc(NC(=O)c4cc(-n5cnc(C)c5)cc(C(F)(F)F)c4)ccc3C)ccc12 [Example 73, N-methyl-6-(2-methyl-5-(3-(4-methyl-1H-imidazol-1-yl)-5-(trifluoromethyl)benzamido)phenyl)-1H-indazole-3-carboxamide]
CCNC(=O)c1n[nH]c2cc(-c3cccc(NC(=O)Nc4ccc(Cl)c(Cl)c4)c3)ccc12 [Example 62, 6-(3-(3-(3,4-dichlorophenyl)ureido)phenyl)-N-ethyl-1H-indazole-3-carboxamide]
O=C(Nc1ccc(-c2ccc3c(C(=O)Nc4cccc(C(F)(F)F)c4)n[nH]c3c2)cc1)c1ccc(Br)s1 [Example 35, 6-(4-(5-bromothiophene-2-carboxamido)phenyl)-N-(3-(trifluoromethyl)phenyl)-1H-indazole-3-carboxamide]
